Laboratory results published in patent US5475029A, “Farnesyl compounds as cholesterol lowering agents” (The Board of Trustees of the Leland Stanford Junior …, priority 1993, dated 1995).

How the values were obtained:
Format in all cases: cell-based
HMGal [1] = experiment: HMGal activity (in vitro β-galactosidase specific activity) in CHO-HMGal cells
Method: Cell Culture--All cells were grown as monolayers at 37° C. in an atmosphere of 5% CO2. CHO-HMGal cells were grown in minimal essential medium (MEM) supplemented with 0.25 mg/ml active geneticin and either 5% fetal calf serum (FCS) or 5% lipid-poor fetal calf serum (LPS).
Stock Solutions--Stock solutions of farnesyl acetate, ethyl farnesyl ether, and the mixture of 25-hydroxycholesterol with cholesterol were all made in 100% ethanol at 100 times the final concentration. In all experiments in which these compounds were used, there is a final concentration of 1% ethanol in the medium. For control, cells grown with "no additives" or "mevalonate" 100% ethanol was added to the medium to bring the final concentration of ethanol to 1%. The mevalonate stock solution was prepared at a concentration of 2M in 20 mM potassium phosphate buffer (pH 4.5).
(§1) β-galactosidase Specific Activity--In vitro β-galactosidase activity was measured using the substrate, o-nitrophenyl-β-D-galactopyranoside. Specific activities were calculated using protein concentration values.
Farnesyl acetate and ethyl farnesyl ether stimulate a reduction in HMGal activity--In an attempt to identify tile non-sterol metabolite(s) that triggers the down regulation of HMG-CoA reductase, five commercially available isoprenoid compounds were tested for their effects on HMGal activity in CHO-HMGal cells. Each of tile compounds tested closely resembled one of tile naturally occurring isoprenoid pyrophosphates, except that the pyrophosphate group had been replaced by either a hydroxyl or an […] group. The compounds tested included: 3-methyl-2-buten-1-ol, the alcohol of the five carbon isoprenoid-dimethylallyl pyrophosphate (a naturally occurring isomer of isopentenyl pyrophosphate); geraniol and geranyl acetate, the alcohol and the […] of the ten carbon isoprenoid-geranyl pyrophosphate; and farnesol and farnesyl acetate, the alcohol and the […] of the fifteen carbon isoprenoid-farnesyl pyrophosphate.
(§2) To confirm that the reduction in HMGal activity was the result of a regulatory function specifically targeting the membrane domain of HMGal, the effects of farnesyl acetate on β-galactosidase activity were measured in vitro for both CHO-HMGal cells and CHO-Gal cells. The CHO-Gal cells had been stably transfected with a construct identical to the HMGal construct (using the same vector, promoter, and 5' and 3' flanking regions) except that the construct in the CHO-Gal cells codes for a soluble β-galactosidase protein instead of the HMGal fusion protein with the membrane domain of HMG-CoA reductase. In this experiment, the CHO-Gal cells served to control for any artifacts farnesyl acetate might cause in the β-galactosidase assay or any nonspecific effects farnesyl acetate might have on the rates of protein synthesis or degradation.

β-galactosidase = β-galactosidase activity in CHO-Gal control cells
Method: as §1, §2

HMG-CoA reductase [2] = experiment: HMG-CoA reductase synthesis rate ([35S]methionine incorporation); conditions: 10 μg/ml
Method: (§3) Measurement of HMGal and HMG-CoA Reductase Synthesis Rates Cells plated into 60×15 mm dishes were grown in 5% LPS MEM with 0.25 mg/ml active geneticin for 24 hours. These cells were washed with PBS and grown for 24 hours in 5% LPS MEM supplemented with 0.25 mg/ml active geneticin, 10 μM compactin and 0.1 mM mevalonate. After 24 hours, the medium was removed, the cells were washed with PBS and the medium was replaced with methionine-free MEM supplemented with 5% LPS, 250 μg/ml of active geneticin, 10 μM compactin, and 0.1 mM mevalonate. In addition, 20 mM mevalonate or 10 μg/ml farnesyl acetate was included in those plates previously treated with these compounds. […] Cells were washed, lysed and the HMGal and HMG-CoA reductase proteins were immunoprecipitated, subjected to SDS-PAGE and quantified. […]
(§4) Farnesyl compounds reduce translation and stimulate degradation of HMG-CoA reductase and HMGal A reduction in HMGal specific activity triggered by the farnesyl compounds could have been the result of a decrease in HMGal synthesis, an increase in HMGal degradation, or a combination of changes in both the synthesis and degradation rates. In order to test whether the farnesyl compounds impact synthesis, the rates of HMGal, HMG-CoA reductase, and total cellular protein synthesis were measured by [^35 S]methionine incorporation in the presence and absence of 10 μg/ml farnesyl acetate.

HMGal [3] = experiment: HMGal synthesis rate ([35S]methionine incorporation); conditions: 10 μg/ml
Method: as §3, §4

HMG-CoA reductase [4] = experiment: HMG-CoA reductase degradation rate (pulse-chase); conditions: 10 μg/ml during chase; untreated 9.3 hours
Method: Measurement of HMGal and HMG-CoA Reductase Degradation Rates Cells grown in 60×15 mm dishes were washed once with ice-cold PBS and starved for 1 hour in 1 ml of methionine-free MEM supplemented with 5% LPS, 250 μg/ml of active geneticin, 10 μM compactin, and 0.1 mM mevalonate. These cells were radio-labeled for 2 hours in 300 μl of the methionine-free starvation medium containing 100 μCi of Tran^35 S-label (>1,000 Ci/mmol). Cells were incubated in an MEM-based chase medium containing 2 mM methionine, 5% LPS, 250 μg/ml of active geneticin, 10 μM compactin, and 0.1 mM mevalonate. During the chase period, some plates also had either 20 mM mevalonate, 10 μg/ml farnesyl acetate or 10 μg/ml ethyl farnesyl ether added to them as indicated in the figure legend. Following the chase, cells were washed, lysed and the HMGal and HMG-CoA reductase proteins were immunoprecipitated, subjected to SDS-PAGE and quantified.
In order to test whether the farnesyl compounds impact degradation, the rates of degradation for HMGal, HMG-CoA reductase, and total cellular protein were measured in the presence and absence of 10 μg/ml farnesyl acetate and ethyl farnesyl ether.

## CC(=O)OCC=C(C)CCC=C(C)CCC=C(C)C [farnesyl acetate]
HMGal [1]; 10 μg/ml, 24 hour treatment
  reduction of HMGal activity: 70%
HMGal [1]; 20 μg/ml
  reduction of HMGal activity: 80%
HMGal [1]; five isoprenoid compounds tested
  reduction in HMGal activity at concentrations below the levels toxic to the cells: stimulated a reduction in HMGal activity
β-galactosidase; 10 μg/ml
  change of β-galactosidase activity of CHO-Gal cells: not changed significantly
β-galactosidase; 20 μg/ml
  change of β-galactosidase activity of CHO-Gal cells: essentially unchanged
HMG-CoA reductase [2]
  reduction in the rate of HMG-CoA reductase synthesis: 60%
HMGal [3]
  reduction in the rate of HMGal synthesis: 80%
HMG-CoA reductase [4]
  half-life of HMG-CoA reductase: 3.6 h
  reduction of the half-life of HMG-CoA reductase: 60%
